Data from patent US20150352232A1, “MR IMAGING DIAGNOSTIC AGENT FOR INTRACTABLE NEUROLOGICAL DISEASE” (SHIGA UNIVERSITY OF MEDICAL SCIENCE, priority 2013, published 2015).
Entries after “also recorded” stand apart in the source; their conditions may differ.

Assays:
[1] = biological target: T1, Aβ fibrils (Homo sapiens, UniProt P05067); test: Analysis of binding property using QCM apparatus, sensor with Aβ fibrils fixed (Test Example 3); conditions: final concentration 10 μM in PBS
T1 construct: Aβ oligomers or Aβ fibrils were fixed to the sensor portion of the QCM apparatus
Description: (§1) Aβ oligomers or Aβ fibrils were fixed to the sensor portion of the QCM apparatus, and immersed in PBS in a glass container. Subsequently, Compound 8 or Compound 1 was added thereto to a final concentration of 10 μM, and a frequency change was recorded from immediately after the addition.

[2] = biological target: T2, senile plaques (Homo sapiens, UniProt P05067); test: 19F-MR image measurement of the brain after tail vein injection (Test Example 1); format: in vivo, mouse; conditions: 200 mg/kg tail vein, three-hour measurement beginning five hours after injection, 7T
T2 construct: Spots of amyloid β, which forms senile plaques; tissue Jackson Laboratory; host or cells: brain of live APP/PS1 double transgenic mice
Description: Compound 1 was weighed out in an amount of 10 mg, and 0.125 ml of 80% Tween-80 was added thereto, followed by dissolution using a glass rod under heating. Subsequently, 0.875 ml of physiological saline was added thereto to prepare a solution for injection (10 mg/ml). The solution was injected in a total amount of 200 mg/kg at […] to the tail vein of each of the genetically modified model mice of Alzheimer's disease (APP/PS1) and the normal wild mice (Wild), which had been subjected to pentobarbital sodium anesthesia. As the genetically modified model mice of Alzheimer's disease (APP/PS1), amyloid precursor protein and presenilin 1 double transgenic mice (APP/PS1, purchased from Jackson Laboratory and bred) were used. After the completion of the injection, under anesthesia, the head of each mouse was continuously evaluated every hour using an MRI apparatus, and all data were added to form images. The brain image of ^19F-MRI was obtained according to the chemical shift imaging method (CSI method). As the MRI apparatus, a 7T Unity Inova MR Scanner (produced by Varian Medical System) was used. Each of the genetically modified model mice of Alzheimer's disease (APP/PS1) and normal wild mice (Wild) were injected with Compound 1. […] FIGS. 1A and 1C are ^19F-MRI images, and FIGS. 1B and 1D are composite photos of ^19F-MRI and ^1H-MRI images.

[3] = biological target: Aβ oligomers (Homo sapiens, UniProt P05067); test: Analysis of binding property using QCM apparatus, sensor with Aβ oligomers fixed (Test Example 3); conditions: final concentration 10 μM in PBS
Description: as §1

T1 sequence (P05067 672-713 limits assumed): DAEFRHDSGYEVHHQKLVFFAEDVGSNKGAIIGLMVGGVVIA
Chain of Aβ oligomers (P05067 672-713 limits assumed): as above
T2 sequence (P05067 672-713 limits assumed): as above

19F-MR signals presumed to be senile plaques inside of the brain ([2]; normal wild mouse (Wild)) | Compound | binding to Aβ fibrils (conclusion from QCM) [1] | 19F-MR signals presumed to be senile plaques inside of the brain ([2]; genetically modified model mice of Alzheimer's disease (APP/PS1)) | binding to Aβ oligomers (conclusion from QCM) [3] | QCM frequency change, sensor with Aβ fibrils fixed (Fibrillar) compared to Control [1]
such signals were not detected | CN(C)c1ccc(/C=C/c2nc3ccc(OCCOCCOCCOCCOCCOCCOCCOCC(F)(F)F)cc3o2)cc1 [Compound 1, 6-(3′,6′,9′,12′,15′,18′,21′-heptaoxa-23′,23′,23′-trifluorotricosanyloxy)-2-(4′-dimethylaminostyryl)benzoxazole] | binds to Aβ fibrils | signals presumed to be senile plaques were detected inside of the brain | does not bind to Aβ oligomers | –
– | COC(=O)CCC(C(=O)/C=C/c1ccc(O)c(OC(F)(F)F)c1)C(=O)/C=C/c1ccc(O)c(OC(F)(F)F)c1 [Compound 8] | binding to both Aβ oligomers and Aβ fibrils | – | binding to both Aβ oligomers and Aβ fibrils | significant frequency reduction; also recorded: frequency reduction was observed
